{"source": "patent US20210121482A1", "about": "“WITHANOLIDES FOR THE TREATMENT OF CACHEXIA” (University of Louisville Research Foundation, Inc., priority 2019, published 2021)", "key": {"phospho-p65 (NF-κB)": {"test_system": "phospho-p65 (NF-κB)", "assay": "Western blot and IHC of p65 in tumor samples", "assay_type": "in vivo, mice", "settings": "2 and 6 mg/kg", "experimental": "Immunohistochemistry of Tumor Tissue: For the detection of various proteins, 10 μm thick sections were made from the midsection of tumor samples. A hydrophobic boundary was drawn around the sections and then they were fixed in 3.7% formaldehyde solution for 10 minutes. The slides were washed three times with 1×PBS for 5 minutes each. The sections were then blocked in 2% BSA in PBS for 30 minutes. The sections were then incubated with primary antibodies (1:100 dilution) overnight in a humidity chamber at 4° C. The sections were then washed three times with 1×PBS for 5 minutes. The slides were incubated in appropriate secondary antibodies (1:2000 dilution) for 45-60 minutes. Sections were counterstained with DAPI (1:2500 dilution) for 5 minutes to visualize nuclei. Slides were then washed twice in 1×PBS for 5 minutes, and then mounted for visualization. Nonspecific background staining was determined by performing the above protocol with omitting the inclusion of the primary antibodies. Refer to Table 2 for a complete list of antibodies utilized.\nProtein Extraction and Western Blotting: Tumor samples were homogenized in chilled RIPA buffer (Sigma) supplemented with a Complete Mini Protease Inhibitor tablet (Roche Molecular Biochemicals, Indianapolis, Ind.). Tissue lysates were centrifuged at 10,000 RPM and the supernatants were collected. Protein concentration for each sample was determined using the Bradford reagent method (Bio-Rad), according to manufacturer's instructions. Protein lysates ([…]) were separated on 10% SDS-PAGE gels at 100 volts for 2 h. The proteins were transferred to nitrocellulose membranes at 100 volts for 90 minutes. The membranes were blocked with 5% non-fat milk in Tris-buffered saline supplemented with Tween®20 (0.5%; TBS-T) for 30-60 minutes. The membranes were then washed 3 times with TBS-T for 5 minutes. The membranes were then incubated with primary antibody at 4° C. overnight. […]"}, "[1]": {"test_system": "ovarian cancer-induced cachexia", "assay": "Grip strength, tumor-free and tumor-bearing mice (Example 2)", "assay_type": "in vivo", "settings": "terminal week", "experimental": "Grip Strength Measurements: Before assessment, mice were weighed on a commercially available digital scale. Forepaw and total grip strength of mice were measured using a digital grip strength meter (Columbus Instruments, Columbus, Ohio, USA) and then normalized by total body weight. Before the beginning of the test, the mice were acclimatized for five minutes. The mouse was allowed to grasp the total paw pull-bar assembly, and in a separate experiment the forepaw pull-bar assembly. The mouse was then gently drawn with constant force in a straight line away from the device until the mouse could no longer grasp the bar. Force at time of release was recorded as the peak tension. Each mouse was tested five times with a delay of 20-40 seconds between each testing. The mean peak tension was calculated from the recordings normalized by total body weight.\nGrip Strength Measurements: as in Example 1."}, "satellite cells": {"test_system": "satellite cells", "assay": "Satellite cell IHC (Pax7, MyoD, Laminin) in TA muscle", "assay_type": "in vivo, mice", "experimental": "Due to the role of WFA in inhibiting canonical NF-κ B signaling and the effect ovarian cancer has on this signaling pathway, WFA and the xenograft model were tested to measure induction or activation of satellite cells. The TA muscle was subjected to immunofluorescent immunohistochemical (IHC) staining for Pax7 (a marker of satellite cells), MyoD (a marker of myogenic differentiation), and Laminin (a marker of the basal lamina) (FIG. 15A). As accurate IHC detection of satellite cells can be challenging, individual color channels were compared against negative control slides to optimize visualization of satellite cells, minimize nonspecific background staining, and rule out false positives (Pax7^+/DAPI− cells) (37).\nInitially, the number of satellite cells per field (normalized by the number of Laminin+ myofibers) was quantified to assess whether the model of ovarian cancer or WFA treatment affected the satellite cell population at large. […] There was a significant increase in the amount of Pax7+ cells in the tumor-bearing vehicle-treated group (0.34±0.01) compared to the tumor-free vehicle-treated and tumor-free WFA 2 mg/kg groups, although there was a significant reduction compared to the tumor-free WFA 4 mg/kg group (p<0.0001 for all comparisons). […] A small, but statistically significant decrease in the tumor-bearing WFA 4 mg/kg group was observed compared to the tumor-bearing vehicle-treated group (p=0.0004). […] Due to the systemic nature of WFA treatment, the tumor-specific uptake of WFA may have diminished the effect observed on skeletal muscle with respect to satellite cell activation in the tumor-bearing animals compared to the tumor-free animals.\nAfter assessing changes in the gross number of satellite cells, the myogenic status was assessed to determine if the satellite cells were functionally activated. Satellite cells that are Pax7+/MyoD− are self-renewing or returning to quiescence, whereas satellite cells that are Pax7+/MyoD+ have committed to the myogenic lineage and will facilitate in muscle repair (6, 38). […] It was not feasible to enumerate the population of Pax7−/MyoD+ cells in response to the xenografted cancer or WFA treatment due to experimental limitations. However, distinct populations of Pax7+/MyoD− and Pax7+/MyoD+ cells were present (FIGS. 15C and 15D)."}, "CAOV3": {"test_system": "CAOV3", "settings": "CAOV3 cells; cited from earlier work"}, "[2]": {"test_system": "A2780 ovarian cancer xenograft", "assay": "Survival and tolerability, A2780 xenograft mice (Example 1)", "quoted_text": "Tumor-bearing groups received an IP injection of 1.0×10^6 low passage A2780 cells suspended in 100 μl sterile PBS.\nGraphical Display and Statistical Analyses: The majority of the results were expressed as box-and-whisker plots with the box comprised of the first, second, and third quartiles, and the lower and upper whiskers corresponding to the minimum and maximum values, respectively, to display the entire range of data. A Kaplan-Meier curve was used for the survival analysis. Statistical analysis of the data was performed using one-way analysis of variance (ANOVA) followed by Tukey's Honestly Significant Difference Test (HSDT) post hoc analysis or the Mantel-Cox log-rank test to determine statistically significant differences between groups with GraphPad Prism 8.0.1 software for Mac (La Jolla, Calif., USA). A value of P<0.05 was considered statistically significant, unless otherwise specified."}}, "data": [{"smiles": "CC1=C(CO)C(=O)O[C@@H]([C@@H](C)[C@H]2CC[C@H]3[C@@H]4C[C@H]5O[C@]56[C@@H](O)C=CC(=O)[C@]6(C)[C@H]4CC[C@]23C)C1", "note": "[WFA, (4β,5β,6β,22R)-4,27-Dihydroxy-5,6:22,26-diepoxyergosta-2,24-diene-1,26-dione]", "values": [{"measurement": "phospho-p65 co-localized with DAPI (nuclear translocation)", "setting": "phospho-p65 (NF-κB)", "value": "impairment in the translocation of p65 to the nucleus"}, {"measurement": "phospho-p65 staining in tumor cells (IHC)", "setting": "phospho-p65 (NF-κB); vs vehicle treated group", "value": "severely diminished"}, {"measurement": "protein levels of phospho- and total p65 in tumor (immunoblot)", "setting": "phospho-p65 (NF-κB); vs vehicle treated group", "value": "robust decrease in the protein levels of phospho- and total p65"}, {"measurement": "forelimb and total grip strengths", "setting": "[1]; tumor-bearing mice, 2 and 4 mg/kg, vs tumor-bearing vehicle", "value": "significantly increased compared to the tumor-bearing vehicle-treated"}, {"measurement": "total grip strength", "setting": "[1]; tumor-free mice, 4 mg/kg, vs tumor-free vehicle", "value": "significantly improved the total grip strength of the tumor-free mice"}, {"measurement": "forelimb grip strength", "setting": "[1]; tumor-free mice, 2 and 4 mg/kg, vs tumor-free vehicle", "value": "significantly improved the forelimb grip strength of tumor-free mice"}, {"measurement": "Pax7+ cells normalized by number of Laminin+ myofibers", "setting": "satellite cells; tumor-bearing, WFA 2 mg/kg", "value": "0.26±0.01"}, {"measurement": "proportion of differentiating satellite cells (Pax7+/MyoD+)", "setting": "satellite cells; tumor-bearing, WFA 2 mg/kg", "value": "48.85±1.63", "unit": "%"}, {"measurement": "proportion of proliferating satellite cells (Pax7+/MyoD−)", "setting": "satellite cells; tumor-bearing, WFA 2 mg/kg", "value": "51.15±1.63", "unit": "%"}, {"measurement": "Pax7+ cells normalized by number of Laminin+ myofibers", "setting": "satellite cells; tumor-bearing, WFA 4 mg/kg", "value": "0.31±0.01"}, {"measurement": "proportion of differentiating satellite cells (Pax7+/MyoD+)", "setting": "satellite cells; tumor-bearing, WFA 4 mg/kg", "value": "52.79±1.99", "unit": "%"}, {"measurement": "proportion of proliferating satellite cells (Pax7+/MyoD−)", "setting": "satellite cells; tumor-bearing, WFA 4 mg/kg", "value": "47.21±1.99", "unit": "%"}, {"measurement": "Pax7+ cells normalized by number of Laminin+ myofibers", "setting": "satellite cells; tumor-free, WFA 2 mg/kg", "value": "0.28±0.02"}, {"measurement": "proportion of differentiating satellite cells (Pax7+/MyoD+)", "setting": "satellite cells; tumor-free, WFA 2 mg/kg", "value": "60.73±2.28", "unit": "%"}, {"measurement": "proportion of proliferating satellite cells (Pax7+/MyoD−)", "setting": "satellite cells; tumor-free, WFA 2 mg/kg", "value": "39.27±2.28", "unit": "%"}, {"measurement": "Pax7+ cells normalized by number of Laminin+ myofibers", "setting": "satellite cells; tumor-free, WFA 4 mg/kg", "value": "0.42±0.01"}, {"measurement": "proportion of differentiating satellite cells (Pax7+/MyoD+)", "setting": "satellite cells; tumor-free, WFA 4 mg/kg", "value": "61.37±1.49", "unit": "%"}, {"measurement": "proportion of proliferating satellite cells (Pax7+/MyoD−)", "setting": "satellite cells; tumor-free, WFA 4 mg/kg", "value": "38.63±1.49", "unit": "%"}, {"measurement": "cell cycle arrest and apoptosis", "setting": "CAOV3", "value": "induces cell cycle arrest and the induction of apoptosis"}, {"measurement": "survival (Kaplan-Meier)", "setting": "[2]; 2 mg/kg, vs WFA 6 mg/kg and vehicle treated groups", "value": "higher survival rate"}, {"measurement": "toxicity of high dose", "setting": "[2]; 6 mg/kg IP every three days, tumor-bearing NSG mice", "value": "may be a lethal dose"}, {"measurement": "survival (Kaplan-Meier)", "setting": "[2]; 6 mg/kg, vs vehicle treated group (p=0.06)", "value": "trend towards an increase in survival"}]}]}
